Assays:
Mus musculus = assay: Analgesic activity in iv dosed mouse assessed as inhibition of acetic acid-induced writhes; assay type: functional
P2X purinoceptor 3 = target: T1, P2X purinoceptor 3 (Homo sapiens, UniProt P56373)
T1 sequence (P56373 whole entry): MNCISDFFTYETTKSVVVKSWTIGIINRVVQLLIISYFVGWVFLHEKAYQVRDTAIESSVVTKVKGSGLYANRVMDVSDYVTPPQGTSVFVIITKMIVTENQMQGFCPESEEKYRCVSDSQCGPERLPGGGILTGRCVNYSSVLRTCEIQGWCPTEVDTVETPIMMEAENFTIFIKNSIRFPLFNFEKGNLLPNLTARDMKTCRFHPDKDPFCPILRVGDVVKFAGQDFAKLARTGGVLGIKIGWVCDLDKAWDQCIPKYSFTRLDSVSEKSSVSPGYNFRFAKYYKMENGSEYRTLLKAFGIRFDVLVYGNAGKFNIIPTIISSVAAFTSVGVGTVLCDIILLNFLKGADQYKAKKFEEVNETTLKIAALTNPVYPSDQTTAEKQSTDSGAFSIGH

[1] = Half life in rat at 0.5 mg/kg, iv or 1 mg/kg, po; assay type: ADME, organism-based; settings: in vivo
[2] = Oral bioavailability in rat at 1 mg/kg; assay type: ADME, organism-based; settings: in vivo
in vivo = settings: rat, iv, 0.5 mg/kg

| Compound | IC50 (P2X purinoceptor 3) | also measured |
| --- | --- | --- |
| COc1ccc(C(=O)C2=C([O-])C(=O)N(c3ccc(-c4ccon4)cc3)C2C2CCCCC2)cc1.[Na+] (stereo unspecified) |  | ED50 (Mus musculus): 2.6 mg/kg |
| CCOC(=O)c1ccc(N2C(=O)C(O)=C(C(=O)c3ccc(OC)cc3)C2c2cccc(F)c2)cc1 (stereo unspecified) | 30 nM |  |
| COc1ccc(C(=O)C2=C(O)C(=O)N(c3ccc(-c4noc(C)n4)cc3)C2C2CCCCC2)cc1 (stereo unspecified) | 19 nM | half-life [1]: 0.8 h; bioavailability [2]: 7.1%; clearance (in vivo): 5 mL/min/kg |
| COc1ccc(C(=O)C2=C(O)C(=O)N(c3ccc(-c4ccon4)cc3)C2C2CCCCC2)cc1 (stereo unspecified) [listing 1 of 2 here] |  | inhibition (Mus musculus): Dose-dependent effect |
| COc1ccc(C(=O)C2=C(O)C(=O)N(c3ccc(-c4ncco4)cc3)C2C2CCCCC2)cc1 (stereo unspecified) | 135 nM |  |
| CCOC(=O)c1ccc(N2C(=O)C(O)=C(C(=O)c3ccccc3)C2c2ccccc2)cc1 (stereo unspecified) | 370 nM |  |
| COc1ccc(C(=O)C2=C(O)C(=O)N(c3ccc(-c4noc(C)n4)cc3)C2c2ccccc2)cc1 (stereo unspecified) | 100 nM |  |
| COc1ccc(C(=O)C2=C(O)C(=O)N(c3ccccc3)C2c2ccccc2)cc1 (stereo unspecified) | > 10000 nM |  |
| CCOC(=O)c1ccc(N2C(=O)C(O)=C(NC(=O)c3ccc(OC)cc3)C2c2ccccc2)cc1 (stereo unspecified) | 1370 nM |  |
| COc1ccc(C(=O)C2=C(O)C(=O)N(c3ccc(-c4nnc(C)o4)cc3)C2C2CCCCC2)cc1 (stereo unspecified) | 72 nM | half-life [1]: 1.7 h; bioavailability [2]: 2.9%; clearance (in vivo): 5.5 mL/min/kg |
| COc1ccc(C(=O)C2=C(O)C(=O)N(c3ccc(-c4ccon4)cc3)C2C2CCCCC2)cc1 (stereo unspecified) [listing 2 of 2 here] |  | half-life [1]: 1.3 h; bioavailability [2]: 10.2% |
| COc1ccc(C(=O)C2=C(O)C(=O)N(c3ccc(-c4cc(C)no4)cc3)C2C2CCCCC2)cc1 (stereo unspecified) | 9 nM | half-life [1]: 1.1 h; bioavailability [2]: 0.5%; clearance (in vivo): 6.2 mL/min/kg |
| CCOC(=O)c1ccc(N2C(=O)C(O)=C(C(=O)c3ccc(OC)cc3)C2c2ccc(F)cc2)cc1 (stereo unspecified) | 20 nM | half-life [1]: 0.1 h; clearance (in vivo): 37 mL/min/kg |
| COc1ccc(C(=O)C2=C(O)C(=O)N(c3ccc(-c4nc(C)no4)cc3)C2C2CCCCC2)cc1 (stereo unspecified) |  | half-life [1]: 1 h; bioavailability [2]: 13.5%; clearance (in vivo): 3.4 mL/min/kg |
| COc1ccc(C(=O)C2=C(O)C(=O)N(c3ccc(CO)cc3)C2c2ccccc2)cc1 (stereo unspecified) | > 10000 nM |  |
| CCOC(=O)c1ccc(N2C(=O)C(OC)=C(C(=O)c3ccc(OC)cc3)C2c2ccccc2)cc1 (stereo unspecified) | 9800 nM |  |
| CCOC(=O)c1ccc(N2C(=O)C=C(C(=O)c3ccc(OC)cc3)C2c2ccccc2)cc1 (stereo unspecified) | > 10000 nM |  |
| CCOC(=O)c1ccc(N2CC(C(=O)c3ccc(OC)cc3)=C(O)C2=O)cc1 | > 10000 nM |  |
| CCOC(=O)c1ccc(N2C(=O)C(O)=C(Cc3ccc(OC)cc3)C2c2ccccc2)cc1 (stereo unspecified) | > 10000 nM |  |
| CCOC(=O)c1ccc(N2C(=O)C(O)=C(C(=O)c3ccc(OC)cc3)C2c2ccc(Cl)cc2)cc1 (stereo unspecified) | 130 nM |  |
| CCOC(=O)c1ccc(N2C(=O)C(O)=C(C(=O)c3ccc(OC)cc3)C2c2ccccc2F)cc1 (stereo unspecified) | 130 nM |  |
| CCOC(=O)c1ccc(N2C(=O)C(O)=C(C(C)=O)C2c2ccccc2)cc1 (stereo unspecified) | 4790 nM |  |

The next lines start with results.

| IC50 (P2X purinoceptor 3) | Compound | also measured |
| --- | --- | --- |
| 3280 nM | COc1ccc(C(=O)C2=C(O)C(=O)N(c3ccc(C(C)=O)cc3)C2c2ccccc2)cc1 (stereo unspecified) |  |
| 4240 nM | CCOC(=O)c1ccc(N2C(=O)C(NO)=C(C(=O)c3ccc(OC)cc3)C2c2ccccc2)cc1 (stereo unspecified) |  |
| 560 nM | CCOC(=O)c1ccc(N2C(=O)C(O)=C(/C(=N/O)c3ccc(OC)cc3)C2c2ccccc2)cc1 (stereo unspecified) |  |
| 360 nM | COc1ccc(C(=O)C2=C(O)C(=O)N(c3ccc(C(F)(F)F)cc3)C2c2ccc(F)cc2)cc1 (stereo unspecified) |  |
| 3930 nM | CCOC(=O)c1ccc(N2C(=O)C(O)=C(C(=O)Nc3ccc(OC)cc3)C2c2ccccc2)cc1 (stereo unspecified) |  |
| > 10000 nM | COc1ccc(C(=O)C2=C(O)C(=O)N(c3ccc(C(=O)O)cc3)C2c2ccccc2)cc1 (stereo unspecified) |  |
| 20 nM | CCOC(=O)c1ccc(N2C(=O)C(O)=C(C(=O)c3ccc(OC)cc3)C2c2ccccc2)cc1 (stereo unspecified) |  |
| > 10000 nM | CCOC(=O)c1ccc(N2C(=O)C(O)=C(c3ccc(OC)cc3)C2c2ccccc2)cc1 (stereo unspecified) |  |
| 90 nM | CCOC(=O)c1ccc(N2C(=O)C(O)=C(C(=O)c3ccc(OC)cc3)C2c2ccccc2Cl)cc1 (stereo unspecified) |  |
| 10 nM | CCOC(=O)c1ccc(N2C(=O)C(O)=C(C(=O)c3ccc(OC)cc3)C2C2CCCCC2)cc1 (stereo unspecified) |  |

Reference: ChEMBL document CHEMBL4118217, “Pyrrolinone derivatives as a new class of P2X3 receptor antagonists. Part 1: Initial structure-activity relationship studies of a hit from a high throughput screening” (Bioorg Med Chem Lett, 2018)
